These results are taken from US9938301B2, “Dihydropyrimido fused ring derivative as HBV inhibitor” (QILU PHARMACEUTICAL CO., LTD., priority 2014, dated 2018).

Test [1] concerns HBV DNA in HepG2.2.15 cells. The test can be described thus: HBV in vitro assay quantitive qPCR test. As to conditions: Hepatitis B virus. In kind it is cell-based. Here is the method: • 1 Purpose of the test: • The content of HBV DNA in HepG2.2.15 cells was detected by real time quantitive qPCR test to evaluate an inhibitory action of the compound on HBV with an EC50 value of the compound as an indicator. • 2 Experimental materials: • 2.1 Cell lines: HepG2.2.15 Cells • HepG2.2.15 cell culture media (DMEM/F12, Invitrogen-11330057; 10% serum, Invitrogen-10099141; 100 units/ml Penicillin and 10 μg/ml Streptomycin, Invitrogen-15140122; 1% non-essential amino acid, Invitrogen-1140076; 2 mM L-GLUTAMINE, Invitrogen-25030081; 300 μg/ml Geneticin, Invitrogen-10131027 • 2.2 Reagents: • trypsin (Invitrogen-25300062) • DPBS (Hyclone-SH30028.01B) • DMSO (Sigma-D2650-100ML) • High-Throughput DNA Purification Kit (QIAamp 96 DNA Blood Kit, Qiagen-51162) • Quantitative Fast Start Universal Probe Reagent (FastStart Universal Probe Master, Roche-04914058001) • 2.3 Materials and Instruments: • 96-well cell culture plate (Corning-3599) • CO2 Incubator (HERA-CELL-240) • Optical Sealing Membrane (ABI-4311971) • Quantitative PCR 96-well Plate (Applied Biosystems-4306737) • Fluorescent Quantitative PCR Instrument (Applied Biosystems-7500 real time PCR system) • 3. Testing steps and Methods: • 3.1 HepG2.2.15 cells (4×10^4 cells/well) were planted into a 96-well plate, and at 37° C., 5% CO2 cultured overnight. • 3.2 On Day 2, the compounds were diluted in totally 8 concentrations with a dilution gradient of three times. The compounds at different concentrations were added into the culture wells in duplicate. The final concentration of DMSO in the culture media was 1%. 1 μM GLS4 was used as 100% inhibition control; 1% DMSO as 0% inhibition control. • 3.3 On Day 5, replacing with the fresh culture media containing the compound was performed. • 3.4 On Day 8, the culture media in the culture wells was collected, and DNA was extracted with a High-Throughput DNA Purification Kit (Qiagen-51162), See Specification of the product for specific steps. • 3.5 Preparation of PCR Reaction Mixture was shown in Table 1:
• 3.6 To each well of a 96-well PCR plate was added 15 μl reaction mixture, and then to each well was added 10 μl sample DNA or HBV DNA standard. • 3.7 The reaction conditions of PCR were: heating at 95° C. for 10 minutes; then at 95° C. denaturing for 15 seconds, and at 60° C. extending for 1 minute, totally 40 cycles. • 3.8 Data Analysis: • 3.8.1 The inhibition percentage was calculated: % Inh.=[1−(DNA copy number in sample−DNA copy number in 1 μM GLS4)/(DNA copy number in DMSO control−DNA copy number in 1 μM GLS4)]×100. • 3.8.2 Calculating EC50: the concentration of the compound for 50% inhibition of HBV (EC50) was calculated by using GraphPad Prism Software. • 4 Testing Results • The testing results were shown in Table 3: […]

In test [2] the test system is HBV DNA in HepG2.2.15 cells. The test is described as follows: HBV in vitro dot-blot hybridization test. In kind it is cell-based, Hepatitis B virus. The settings on record: Hepatitis B virus. In short, it runs like this:
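HepG2.2.15 cells (4×10^4/well) treated in duplicate with 6 five-fold compound dilutions (1% DMSO final), medium with compound renewed on day 5, cells harvested day 8-9. Intracellular HBV DNA quantified by dot-blot with DIG-labelled probe; % inhibition normalised to 1 μM GLS4 (100%) and DMSO (0%), EC50 fitted.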

Where [3] appears, read: qPCR assay, HepG2.2.15 cells, read-out: Concentration for 50% inhibition of HBV (EC50)value.
Where [4] appears, read: summary list of target compounds, Examples 166-220 (values of Table 3), HepG2.2.15 cells, read-out: BIOACTIVITY (inhibitory actions on HBV DNA, EC50).
[5] abbreviates: HepG2.2.15, read-out: BIOACTIVITY (inhibitory actions on HBV DNA, EC50).
Where [6] appears, read: HepG2.2.15, read-out: Concentration for 50% inhibition of HBV (EC50)value.
Where [7] appears, read: HepG2.2.15, dot-blot hybridization assay, read-out: Concentration for 50% inhibition of HBV (EC50)value.
The mark [8] stands for this setting: HepG2.2.15, summary list of target compounds, Examples 1-165 (same as Table 2), read-out: BIOACTIVITY (inhibitory actions on HBV DNA, EC50).

For the compound `COC(=O)C1=C2C[C@H](N3CCCS3(=O)=O)CN2C(c2nccs2)=N[C@H]1c1ccc(F)cc1Cl` [Example 187], the EC50 in test [1] (setting [3]) and in test [1] (setting [4]) was less than 100 nM each time.

For the compound `COC(=O)C1=C2C[C@H](NP(=O)(OC)OC)CN2C(c2nccs2)=N[C@H]1c1ccc(F)cc1Cl` [Example 190], the EC50 in test [1] (setting [5]) and in test [1] (setting [6]) was 100 to 500 nM each time.

As to `COC(=O)C1=C2C[C@H](NS(N)(=O)=O)CN2C(c2nccs2)=N[C@H]1c1ccc(F)c(F)c1F` [Example 193], the EC50 in test [1] (setting [3]) and in test [1] (setting [4]) was less than 100 nM each time.

For the compound `[H]/N=C(\N)N[C@H]1CC2=C(C(=O)OC)[C@H](c3ccc(F)cc3Cl)N=C(c3nccs3)N2C1` [Example 195], the EC50 in test [1] (setting [3]) and in test [1] (setting [4]) was 1000 to 5000 nM each time.

Consider `COC(=O)C1=C2C[C@H](NS(C)(=O)=O)CN2C(c2nccs2)=N[C@@H]1c1ccc(F)c(F)c1F` [Example 168], for which the EC50 in test [1] (setting [3]) and in test [1] (setting [4]) was 100 to 500 nM throughout.

Take `COC(=O)C1=C2C[C@H](NS(=O)(=O)N3CCC3)CN2C(c2nccs2)=N[C@H]1c1ccc(F)c(F)c1F` [Example 212]: the EC50 in test [1] (setting [3]) and in test [1] (setting [4]) was 100 to 500 nM throughout.

For `COC(=O)C1=C2C[C@H](NS(=O)(=O)c3ccccc3)CN2C(c2nccs2)=N[C@H]1c1ccc(F)cc1Cl` [Example 189], the EC50 in test [1] (setting [3]) and in test [1] (setting [4]) was less than 100 nM each time.

With `COC(=O)C1=C2C[C@H](N(C)S(C)(=O)=O)CN2C(c2nccs2)=N[C@H]1c1ccc(F)cc1Cl` [Example 169], the EC50 in test [1] (setting [3]) and in test [1] (setting [4]) was less than 100 nM each time.

On to `COC(=O)C1=C2C[C@H](NS(=O)(=O)NC(C)C)CN2C(c2nccs2)=N[C@H]1c1cccc(F)c1Cl` [Example 216], for which the EC50 in test [1] (setting [3]) and in test [1] (setting [4]) was less than 100 nM throughout.

Take `COC(=O)C1=C2C[C@H](NS(C)(=O)=O)CN2C(c2nccs2)=N[C@H]1c1ccc(F)cc1C` [Example 180]: the EC50 in test [1] (setting [3]) and in test [1] (setting [4]) was less than 100 nM each time.

With `COC(=O)C1=C2C[C@H](NS(=O)(=O)C(C)(C)C)CN2C(c2nccs2)=N[C@H]1c1ccc(F)cc1Cl` [Example 170], the EC50 in test [1] (setting [3]) and in test [1] (setting [4]) was less than 100 nM in each case.

Consider `COC(=O)C1=C2C[C@H](NS(C)(=O)=O)CN2C(c2nccs2)=N[C@H]1c1ccc(F)cc1C(F)(F)F` [Example 203], for which the EC50 in test [1] (setting [3]) and in test [1] (setting [4]) was 100 to 500 nM throughout.

In the case of `COC(=O)C1=C2C[C@H](NC(=O)C3CC3)CN2C(c2nccs2)=N[C@H]1c1ccc(F)cc1Cl` [Example 173], the EC50 in test [1] (setting [3]) and in test [1] (setting [4]) was less than 100 nM in each case.

As to `COC(=O)C1=C2C[C@H](NS(N)(=O)=O)CN2C(c2nccs2)=N[C@H]1c1ccc(F)c(F)c1Cl` [Example 198], the EC50 in test [1] (setting [3]) and in test [1] (setting [4]) was less than 100 nM in each case.

Regarding `COC(=O)C1=C2C[C@H](N(C(C)C)S(C)(=O)=O)CN2C(c2nccs2)=N[C@H]1c1ccc(F)cc1Cl` [Example 184], the EC50 in test [1] (setting [3]) and in test [1] (setting [4]) was 100 to 500 nM throughout.

Turning to `COC(=O)CS(=O)(=O)N[C@H]1CC2=C(C(=O)OC)[C@H](c3ccc(F)cc3Cl)N=C(c3nccs3)N2C1` [Example 172], the EC50 in test [1] (setting [3]) and in test [1] (setting [4]) was less than 100 nM in each case.

As for `CCN([C@H]1CC2=C(C(=O)OC)[C@H](c3ccc(F)cc3Cl)N=C(c3nccs3)N2C1)S(C)(=O)=O` [Example 183], the EC50 in test [1] (setting [3]) and in test [1] (setting [4]) was less than 100 nM throughout.

Take `COC(=O)C1=C2C[C@H](NC(=O)OC(C)(C)C)CN2C(c2nccs2)=N[C@H]1c1cccc(F)c1Cl` [Example 217]: the EC50 is less than 100 nM in test [1] (setting [3]) and 1000 to 5000 nM in test [1] (setting [4]).

Consider `COC(=O)C1=C2C[C@H](NS(=O)(=O)N(C)C)CN2C(c2nccs2)=N[C@H]1c1cccc(F)c1Cl` [Example 215], for which the EC50 in test [1] (setting [3]) and in test [1] (setting [4]) was less than 100 nM each time.

Turning to `COC(=O)C1=C2C[C@H](NS(N)(=O)=O)CN2C(c2nccs2)=N[C@H]1c1cccc(F)c1Cl` [Example 218], the EC50 in test [1] (setting [3]) and in test [1] (setting [4]) was less than 100 nM each time.

With `COC(=O)C1=C2C[C@H](NS(C)(=O)=O)CN2C(c2nccs2)=N[C@H]1c1sccc1Cl` [Example 177], the EC50 in test [1] (setting [5]) and in test [1] (setting [6]) was less than 100 nM in each case.

Regarding `COC(=O)C1=C2C[C@H](NS(=O)(=O)OC)CN2C(c2nccs2)=N[C@H]1c1ccc(F)cc1Cl` [Example 185], the EC50 in test [1] (setting [3]) and in test [1] (setting [4]) was less than 100 nM in each case.

Take `COC(=O)C1=C2C[C@H](N(CCO)S(C)(=O)=O)CN2C(c2nccs2)=N[C@H]1c1ccc(F)cc1Cl` [Example 188]: the EC50 in test [1] (setting [3]) and in test [1] (setting [4]) was less than 100 nM each time.

As for `COC(=O)C1=C2C[C@H](NS(=O)(=O)O)CN2C(c2nccs2)=N[C@H]1c1ccc(F)cc1Cl` [Example 175], the EC50 in test [1] (setting [3]) and in test [1] (setting [4]) was 1000 to 5000 nM in each case.

With `COC(=O)C1=C2C[C@H](NS(=O)(=O)N3CCCC3)CN2C(c2nccs2)=N[C@H]1c1ccc(F)c(F)c1F` [Example 208], the EC50 in test [1] (setting [3]) and in test [1] (setting [4]) was less than 100 nM throughout.

Turning to `CCOP(=O)(N[C@H]1CC2=C(C(=O)OC)[C@H](c3ccc(F)cc3Cl)N=C(c3nccs3)N2C1)OCC` [Example 174], the EC50 in test [1] (setting [5]) and in test [1] (setting [6]) was 100 to 500 nM in each case.

As for `COC(=O)C1=C2C[C@H](NS(C)(=O)=O)CN2C(c2nccs2)=N[C@H]1c1ccc(F)cn1` [Example 194], the EC50 in test [1] (setting [3]) and in test [1] (setting [4]) was 1000 to 5000 nM in each case.

Consider `COC(=O)C1=C2C[C@H](NS(=O)(=O)NC(C)C)CN2C(c2nccs2)=N[C@H]1c1ccc(F)c(F)c1F` [Example 209], for which the EC50 in test [1] (setting [3]) and in test [1] (setting [4]) was less than 100 nM throughout.

Consider `COC(=O)C1=C2C[C@H](N(O)S(C)(=O)=O)CN2C(c2nccs2)=N[C@H]1c1ccc(F)cc1Cl` [Example 196], for which the EC50 in test [1] (setting [3]) and in test [1] (setting [4]) was 1000 to 5000 nM in each case.

With `COC(=O)C1=C2C[C@@H](NS(C)(=O)=O)CN2C(c2nccs2)=N[C@H]1c1ccc(F)cc1Cl` [Example 181], the EC50 in test [1] (setting [3]) and in test [1] (setting [4]) was less than 100 nM throughout.

On to `COC(=O)C1=C2C[C@H](NS(N)(=O)=O)CN2C(c2ncc(F)cc2F)=N[C@H]1c1ccc(F)c(F)c1F` [Example 219], for which the EC50 in test [1] (setting [3]) and in test [1] (setting [4]) was 100 to 500 nM each time.

On to `COC(=O)C1=C2C[C@H](N(CC(F)F)S(C)(=O)=O)CN2C(c2nccs2)=N[C@H]1c1ccc(F)cc1Cl` [Example 179], for which the EC50 in test [1] (setting [3]) and in test [1] (setting [4]) was 100 to 500 nM in each case.

Turning to `COC(=O)C1=C2C[C@H](NS(=O)(=O)N(C)C)CN2C(c2nccs2)=N[C@H]1c1ccc(F)c(F)c1F` [Example 207], the EC50 in test [1] (setting [3]) and in test [1] (setting [4]) was less than 100 nM throughout.

For the compound `CCOC(=O)C1=C2C[C@H](N(C)C)CN2C(c2nccs2)=N[C@H]1c1ccc(F)cc1Br` [Example 36], the EC50 in test [2] (setting [7]) and in test [2] (setting [8]) was 500 to 1000 nM each time.

Turning to `CCOC(=O)C1=C2C[C@H](CO)CN2C(c2nccs2)=N[C@H]1c1ccc(F)cc1Br` [Example 7], the EC50 in test [2] (setting [7]) and in test [2] (setting [8]) was 100 to 500 nM throughout.
